How the values were obtained:
[1] = target: T1, human recombinant GST-PAK1-KD protein (Homo sapiens, UniProt Q13153); experiment: GST-PAK1-KD (Kinase Domain) IC50 biochemical assay (microfluidic mobility shift); conditions: GST-PAK1-KD inhibition assay
T1 construct: residues #249-545 of human PAK1, UniProtKP/Swiss Q13153; made in house; host or cells: Sf9 insect cells (pAcGP67 baculovirus expression vector)
Procedure: GST-PAK1-KD (Kinase Domain) IC50 Biochemical Assay Protocol
Activity of human recombinant GST-PAK1-KD protein was assessed in vitro assay by observing the phosphorylation of a fluorogenic peptide substrate.
The peptide substrate is a consensus sequence based on various PAK1 substrates reported in the scientific literature. […] Incubations were carried out at 22° C. in MatriCal MP101 384-well Metriplates™. […] Following the 30-minute incubation, the assay mixtures were quenched by the addition of 3 μL of 250 mM EDTA, and the substrate and phosphorylated product were separated by capillary electrophoresis and detected using LabChip® Caliper 3000 (Caliper Life Sciences).

[2] = system: MEK1 phosphorylation at S298; experiment: Cellular PAK IC50 assay: MEK1 (S298) phosphorylation by HTRF in EBC1 cells; assay type: cell-based; conditions: Homo sapiens, EBC-1, 2 h treatment, media containing 0.1% FBS
Procedure: Cellular PAK IC50 Assay Protocol
Group I PAKs (PAK1-3) are activated upon binding to the Rho GTPases, Rac 1 and Cdc42. Activated group I PAKs phosphorylate MEK1 at Serine 298 (S298), one of the two sites in the catalytic domain that is important for stable association between Raf and MEK1 and subsequent MAPK activation. The inhibition of group I PAKs in EBC1 cells is assessed by detecting changes in the level of MEK1 phosphorylation at S298 using homogenous time-resolved fluorescence (HTRF). Inhibitory activity was estimated by treating 2×10^4 EBC1 cells for 2 h with PAK inhibitors in media containing 0.1% FBS. Following inhibitor treatment, cells were lysed with 25 μL of 1× cellular kinase lysis buffer (Cisbio) containing 1× cellular kinase blocking reagent (Cisbio). Cellular lysis was carried out at 4° C. for 2 h with constant shaking before lysate (16 μL) was transferred to white 384-well ProxiPlates™ (Perkin Elmer). Anti-total MEK1 antibody labeled with Europium cryptate donor (1 ng/well) (Cell Signaling Technologies catalog number 2352) and anti-phospho MEK1 (S298) antibody labeled with d2 acceptor (Cell Signaling Technologies catalog number 9128) (10 ng/well) were prepared in 1× detection buffer (CisBio) and added to each well of the assay plate and allowed to incubate at RT overnight. The following day the fluorescence emission from each well was measured in EnVision® (Perkin Elmer) at an excitation of 330 nm and dual emission wavelengths of 615 nm and 665 nm. The signal in each well at 665 nm was multiplied by 10,000 and divided by the signal in the same well at 615 nm to obtain a ratio. Ratio values ([665*10,000]÷615) were plotted as a function of the concentration of compound to determine IC50 values.

T1 sequence (Q13153 249-545): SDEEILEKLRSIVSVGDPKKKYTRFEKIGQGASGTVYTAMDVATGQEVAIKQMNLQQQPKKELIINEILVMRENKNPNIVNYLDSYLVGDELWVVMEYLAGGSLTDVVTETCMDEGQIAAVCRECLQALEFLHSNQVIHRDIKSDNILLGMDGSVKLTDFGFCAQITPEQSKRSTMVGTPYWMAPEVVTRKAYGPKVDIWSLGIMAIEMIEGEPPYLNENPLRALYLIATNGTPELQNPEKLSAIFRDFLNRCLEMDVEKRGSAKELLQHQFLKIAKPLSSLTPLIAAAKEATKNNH

For `C[C@H](Nc1nccc(Nc2cc(C3CC(F)(F)C3)[nH]n2)n1)c1ccc2[nH]ccc2n1` [Compound I-16, (S)—N^2-(1-(1H-pyrrolo[3,2-b]pyridin-5-yl)ethyl)-N^4-(5-(3,3-difluorocyclobutyl)-1H-pyrazol-3-yl)pyrimidine-2,4-diamine], the Ki [1] was 22 nM and the IC50 [2] was 72.6 nM.
`C[C@H](Nc1nccc(Nc2cc(C3CC3)[nH]n2)n1)c1nccc2[nH]ccc12` [Compound I-4, N^2-((S)-1-(1H-pyrrolo[3,2-c]pyridin-4-yl)ethyl)-N^4-(5-cyclopropyl-1H-pyrazol-3-yl)pyrimidine-2,4-diamine] showed a Ki [1] of 60 nM and an IC50 [2] of 325 nM.
Compound `C[C@@H](c1ccc2[nH]ccc2n1)N(C)c1nccc(Nc2cc(C3CC3)[nH]n2)n1` [Compound I-18, (S)—N^2-(1-(1H-pyrrolo[3,2-b]pyridin-5-yl)ethyl)-N^4-(5-cyclopropyl-1H-pyrazol-3-yl)-N^2-methylpyrimidine-2,4-diamine] has a Ki [1] of 24 nM and an IC50 [2] of 221 nM.
In the case of `c1cc(Nc2cc(C3CC3)[nH]n2)nc(NCc2cncc3[nH]cnc23)n1` [Compound I-33, N^2-((3H-imidazo[4,5-c]pyridin-7-yl)methyl)-N^4-(5-cyclopropyl-1H-pyrazol-3-yl)pyrimidine-2,4-diamine], the Ki [1] is reported as 494 nM.
`CN(Cc1ccc2[nH]ccc2n1)c1nccc(Nc2cc(C3CC3)[nH]n2)n1` [Compound I-10, N^2-((1H-pyrrolo[3,2-b]pyridin-5-yl)methyl)-N^4-(5-cyclopropyl-1H-pyrazol-3-yl)-N^2-methylpyrimidine-2,4-diamine] was tested, and the Ki [1] was 67 nM and the IC50 [2] was 1100 nM.
Compound `C[C@H](Nc1nccc(Nc2cc(C3CC3)[nH]n2)n1)c1cc2cc[nH]c2cn1` [Compound I-7, (S)—N^2-(1-(1H-pyrrolo[2,3-c]pyridin-5-yl)ethyl)-N^4-(5-cyclopropyl-1H-pyrazol-3-yl)pyrimidine-2,4-diamine] has a Ki [1] of 5 nM and an IC50 [2] of 68.4 nM.
In the case of `C[C@@H](c1ccc2[nH]ccc2n1)N(C)c1nccc(Nc2cc([C@H]3C[C@@H]3F)[nH]n2)n1` [Compound I-28, N^2—((S)-1-(1H-pyrrolo[3,2-b]pyridin-5-yl)ethyl)-N^4-(5-((1R,2S)-2-fluorocyclopropyl)-1H-pyrazol-3-yl)-N^2-methylpyrimidine-2,4-diamine], the Ki [1] is reported as 8 nM and the IC50 [2] is reported as 53.1 nM.
`C[C@H](Nc1nccc(Nc2cc(C3CC3)[nH]n2)n1)c1ccc2[nH]ccc2n1` [Compound I-12, (S)—N^2-(1-(1H-pyrrolo[3,2-b]pyridin-5-yl)ethyl)-N^4-(5-cyclopropyl-1H-pyrazol-3-yl)pyrimidine-2,4-diamine] gave a Ki [1] of 16 nM and an IC50 [2] of 45.5 nM.
`c1cc(Nc2cc(C3CC3)[nH]n2)nc(NCc2cnc3[nH]ccc3c2)n1` [Compound I-6, N^2-((1H-Pyrrolo[2,3-b]pyridin-5-yl)methyl)-N^4-(5-cyclopropyl-1H-pyrazol-3-yl)pyrimidine-2,4-diamine] was tested, and the Ki [1] was 72 nM and the IC50 [2] was 709 nM.
Compound `C[C@@H](c1ccc2[nH]ccc2n1)N(C)c1nccc(Nc2cc([C@@H]3C[C@@H]3F)[nH]n2)n1` [Compound I-24, N^2-((S)-1-(1H-pyrrolo[3,2-b]pyridin-5-yl)ethyl)-N^4-(5-((1S,2S)-2-fluorocyclopropyl)-1H-pyrazol-3-yl)-N^2-methylpyrimidine-2,4-diamine] has a Ki [1] of 52 nM and an IC50 [2] of 191 nM.
`C[C@H](Nc1nccc(Nc2cc(C3CC3)[nH]n2)n1)c1ncc2[nH]ccc2n1` [Compound I-35, (S)—N^2-(1-(5H-pyrrolo[3,2-d]pyrimidin-2-yl)ethyl)-N^4-(5-cyclopropyl-1H-pyrazol-3-yl)pyrimidine-2,4-diamine] gave a Ki [1] of 3 nM.
